Several values for one entry are separate records, joined by “and”; a condition that tells them apart may be missing. Identical values can stand only once. Where no end group is shown, it is not given here.
Columns and labels:
ERK = test: VEGF-induced ERK phosphorylation in BAEC; format: cell-based; settings: BAEC (not shown)
[1] = system: total MMP-9 (human active and pro-MMP-9); test: Total MMP-9 ELISA on plasma of patients, Phase IIa clinical trial; format: in vivo; settings: for MMP-9 level in plasma, D27C3: day 27 of cycle 3
Excerpt: The clinical trial is a multiple ascending dose, open-label, Phase IIa study evaluating the safety and tolerability of PCK3145 derivative; SEQ ID NO.:7 administered intravenously in patients with metastatic hormone resistant prostatic cancer (HRPC). The study is not randomized. Patients have been enrolled sequentially and chronologically.
The drug was therefore administered to patients characterized as having metastatic adenocarcinoma of the prostate, stage IV prostatic cancer and as having a metastatic hormone resistant prostatic cancer. Four patients per cohort and 4 ascending doses were evaluated. The ascending doses were 5, 20, 40 and 80 mg/m^2. The dose escalation decision has been based on dose-limiting toxicity (DLT).
The 33-day cycle of treatment consisted of a PCK3145 derivative; SEQ ID NO.:7 administration three times per week (day 1, 3 and 5) for 26 days, followed by a 7 day post-treatment observation period. The maximum tolerated dose (MTD) is the dose level below the one inducing grade 3 or 4 drug related toxicity (DLT) in two patients from a cohort of a minimum of 4 patients. Only DLT's observed during the first cycle have been used for the dose escalation decision.
The treatment period consisted of intravenous administration of the PCK3145 derivative (SEQ ID NO.:5 derivative) i.e., SEQ ID NO.:7, three times per week (day 1, 3 and 5) for 26 consecutive days during which patients were closely monitored and undergone regular examination. After a week of treatment break and in the absence of toxicity and disease progression, patients optionally received additional treatment cycles.
Biological samples were drawn during different time points of the study for the purpose of safety monitoring and have been assayed for MMP-9 levels. Plasma samples were placed on dry ice and stored frozen (approximately −70° C.) and subsequently analyzed for total MMP-9 levels.
MMP-9 assay methodology. An Elisa assay measuring total MMP-9, i.e., human active and pro-MMP-9, (Quantikine®), Cat. No.: DMP900, R&D Systems Inc.) was performed on plasma-heparin samples. Plasma samples have been collected from individuals at day 1 (before treatment) and at day 27 of each treatment cycle.
The Quantikine® MMP-9 immunoassay is a solid phase ELISA designed to measure total MMP-9 (92 kDa pro- and 82 kDa active forms) in serum, plasma, saliva, urine and cell culture supernatants. It is calibrated with CHO-cells expressed recombinant human pro-MMP-9 and the antibodies were raised against the recombinant factor. Both antibodies also recognize recombinant human active MMP-9.
The assay employs the quantitative sandwich enzyme immunoassay technique. A monoclonal antibody specific for MMP-9 has been pre-coated onto a microplate. Standards and samples are added into the wells, and MMP-9 is thus bound by the immobilized antibody. After washing away unbound substances, an enzyme-linked polyclonal antibody specific for MMP-9 is added to the wells. Following a wash to remove unbound antibody-enzyme reagent, a substrate solution is added to the wells and color develops in proportion to the amount of total MMP-9 (pro and/or active) bound in the initial step. The color development is stopped and the intensity of the color is measured.

VEGFR-2 = target: T1, VEGFR-2 (Homo sapiens, UniProt P35968); test: VEGF-induced VEGFR-2 phosphorylation in HUVEC (immunoprecipitation, Western blot); format: cell-based
T1 construct: host or cells: HUVEC
T1 sequence (P35968 20-1356): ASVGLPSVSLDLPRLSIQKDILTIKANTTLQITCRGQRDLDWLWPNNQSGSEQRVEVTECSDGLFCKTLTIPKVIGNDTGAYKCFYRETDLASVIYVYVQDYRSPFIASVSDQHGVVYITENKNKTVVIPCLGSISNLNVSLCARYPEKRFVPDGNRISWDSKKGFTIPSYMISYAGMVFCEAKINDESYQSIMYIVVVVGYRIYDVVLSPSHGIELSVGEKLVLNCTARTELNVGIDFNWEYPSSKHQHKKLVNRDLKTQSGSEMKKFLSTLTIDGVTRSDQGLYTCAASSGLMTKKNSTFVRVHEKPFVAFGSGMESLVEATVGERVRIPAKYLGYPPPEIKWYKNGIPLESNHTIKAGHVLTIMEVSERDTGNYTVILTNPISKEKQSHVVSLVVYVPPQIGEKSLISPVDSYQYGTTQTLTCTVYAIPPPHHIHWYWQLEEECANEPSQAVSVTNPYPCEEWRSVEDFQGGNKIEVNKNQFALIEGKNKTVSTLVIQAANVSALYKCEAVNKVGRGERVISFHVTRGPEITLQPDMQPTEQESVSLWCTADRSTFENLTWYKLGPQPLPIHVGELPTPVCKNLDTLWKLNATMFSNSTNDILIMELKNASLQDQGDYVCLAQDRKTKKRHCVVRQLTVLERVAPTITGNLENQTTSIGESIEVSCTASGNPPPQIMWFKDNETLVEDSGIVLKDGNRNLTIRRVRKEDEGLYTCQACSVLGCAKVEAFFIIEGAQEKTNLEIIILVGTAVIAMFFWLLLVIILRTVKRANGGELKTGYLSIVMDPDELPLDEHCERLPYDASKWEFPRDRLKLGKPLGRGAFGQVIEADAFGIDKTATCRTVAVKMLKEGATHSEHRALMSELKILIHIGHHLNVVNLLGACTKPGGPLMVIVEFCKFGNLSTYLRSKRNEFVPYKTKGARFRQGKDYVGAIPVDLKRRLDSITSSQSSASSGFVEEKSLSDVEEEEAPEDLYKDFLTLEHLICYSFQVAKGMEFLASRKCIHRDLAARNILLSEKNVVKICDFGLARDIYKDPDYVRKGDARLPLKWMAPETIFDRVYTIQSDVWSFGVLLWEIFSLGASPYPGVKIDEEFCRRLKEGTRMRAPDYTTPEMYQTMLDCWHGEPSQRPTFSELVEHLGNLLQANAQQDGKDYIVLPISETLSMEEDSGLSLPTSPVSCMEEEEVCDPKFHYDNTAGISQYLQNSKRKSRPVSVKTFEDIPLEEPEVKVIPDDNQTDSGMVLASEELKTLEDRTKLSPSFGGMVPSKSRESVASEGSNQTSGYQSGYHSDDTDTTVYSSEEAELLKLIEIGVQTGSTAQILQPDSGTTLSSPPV
Description: Immunoprecipitation and immunoblotting procedures. After treatment, cells were washed once with phosphate-buffered saline (PBS) containing 1 mM sodium orthovanadate and were incubated in the same medium for 1 h at 4° C. The cells were solubilized on ice in lysis buffer (150 mM NaCl, 10 mM Tris-HCl, pH 7.4, 1 mM EDTA, 1 mM EGTA, 0.5% Nonidet P-40, 1% Triton X-100) containing 1 mM sodium orthovanadate. The cells were then scraped from the culture dishes and the resulting lysates were clarified by centrifugation at 10,000 g for 10 min; Protein concentrations were determined using the micro bicinchoninic acid method (Pierce). For immunoprecipitation studies, lysates were clarified by a 1 h incubation at 4° C. with a mixture of Protein A/Protein G Sepharose beads. After removal of the Sepharose beads by low-speed centrifugation, identical amounts of protein (200 μg) from each sample were transferred to fresh tubes and incubated in lysis buffer overnight at 4° C. in the presence of 2 μg/ml of specific antibodies. Immunocomplexes were collected by incubating the mixture with 25 μl (50% suspension) of Protein A- (rabbit primary antibody) or Protein G- (mouse primary antibody) Sepharose beads, for 2 h. Nonspecifically-bound material was removed by washing the beads three times in 1 ml of lysis buffer containing 1 mM sodium orthovanadate, and bound material was solubilized in 25 μl of two-fold concentrated Laemmli sample buffer (125 mM Tris-HCl (pH 6.8), 20% glycerol, 4% SDS, 10% β-mercaptoethanol, and 0.00125% bromphenol blue), boiled 5 min, and resolved by SDS-PAGE. […] The immunoreactive bands were quantified by scanning densitometry (Molecular Dynamics).
The multifunctionality of VEGF at the cellular level results from its ability to initiate a diverse, complex and integrated network of signaling pathways via its major receptor, VEGFR-2. […] After each treatment, equal amounts of protein were immunoprecipitated with anti-VEGFR-2 polyclonal antibodies and analysed by Western blotting.

Q: “EWQTDNCETCTCYET (cysteine pairing not given here) [PCK3145 derivative, PCK3145 derivative with acetylaminomethyl groups on the three cysteines]” was tested. Which “ERK phosphorylation induced by VEGF” value (ERK) did it give?
A: The value was “inhibitory effect was confirmed”.

Q: And the “change in MMP-9 levels compared to baseline” value (“change in MMP-9 levels” for short) ([1]; elevated MMP-9 category (patients A, B, C, D), after one cycle)?
A: The value was “significant decrease”.

Q: And the “MMP-9 level in plasma, D27C2” value ([1]; elevated baseline MMP-9 patients, day 27 of cycle 2)?
A: The value was 55.6 µg/L and 37.7 µg/L.

Q: What about the “MMP-9 level in plasma, D27C3” value ([1]; elevated baseline MMP-9 patients) of the same sequence?
A: Its value is 54.5 µg/L.

Q: What about the “MMP-9 level in plasma, D27C4” value ([1]; elevated baseline MMP-9 patients, day 27 of cycle 4) of the same sequence?
A: The value was 39.4 µg/L.

Q: What about the “MMP-9 level in plasma, D27C3” value ([1]; normal baseline MMP-9 patients) of the same sequence?
A: The value was 101.8 µg/L.

Q: What about the “change in MMP-9 levels” value ([1]; normal value MMP-9 category (patients E, F, G, H, I), after one cycle) of the same sequence?
A: The value was “no significant decrease”.

Q: And the “decrease in MMP-9 levels compared to baseline” value (shortened to “decrease in MMP-9 levels”) ([1]; patient A, after cycle 1)?
A: The value was “up to 89%”.

Q: What about the “decrease in MMP-9 levels” value ([1]; patient B, after cycle 1) of the same sequence?
A: The value was 41%.

Q: What about the “reduction of baseline level of MMP-9” value ([1]; patient B, treatment cycle 2) of the same sequence?
A: The value was 64%.

Q: What about the “reduction of baseline level of MMP-9” value ([1]; patient B, treatment cycle 3) of the same sequence?
A: Its value is 65%.

Q: And the “reduction of baseline level of MMP-9” value ([1]; patient B, treatment cycle 4)?
A: The value was 75%.

Q: What about the “decrease in MMP-9 levels” value ([1]; patient C, cycle 1) of the same sequence?
A: The value was 90%.

Q: What about the “reduction in MMP-9 levels” value ([1]; patient C, cycle 2) of the same sequence?
A: The value was 76%.

Q: And the “decrease in MMP-9 levels” value ([1]; patient D, cycle 1)?
A: Its value is 34%.

Q: What about the “change in MMP-9 levels” value ([1]; patient E, after 3 cycles) of the same sequence?
A: Its value is “no MMP-9 decrease”.

Q: And the “change in MMP-9 levels” value ([1]; patients E and G, after 2 cycles)?
A: The value was “no decrease”.

Q: What about the “phosphorylation of VEGFR-2 induced by VEGF, dose dependence” value (VEGFR-2) of the same sequence?
A: The value was “dose-dependent”.

Q: What about the “phosphorylation of VEGFR-2 induced by VEGF” value (VEGFR-2; 300 μg/ml, 24 h) of the same sequence?
A: The value was “inhibited”.
